≈ marks a conversion by molar mass, not a printed value. Where two headings read alike, the source gives them in different places.
Key:
Type in all cases: cell-based
[1] = test system: Proteus vulgaris; assay: Conventional agar dilution, MIC
Method: (§1) The antibacterial activity is determined by the conventional agar dilution method, and the minimal inhibitory concentration (MIC) is expressed in mcg/ml.

[2] = test system: P. mirabilis V 15; assay: Conventional agar dilution, MIC; settings: Proteus mirabilis, V15
Method: as §1

[3] = test system: P. sp. V 16; assay: Conventional agar dilution, MIC
Method: as §1

[4] = test system: P. aeruginosa 47823; assay: Conventional agar dilution, MIC; settings: Pseudomonas aeruginosa
Method: as §1

[5] = test system: P. aeruginosa 53825; assay: Conventional agar dilution, MIC; settings: Pseudomonas aeruginosa
Method: as §1

[6] = test system: P. aeruginosa 19660; assay: Conventional agar dilution, MIC; settings: Pseudomonas aeruginosa
Method: as §1

[7] = test system: P. aeruginosa B; assay: Conventional agar dilution, MIC; settings: Pseudomonas aeruginosa
Method: as §1

[8] = test system: Pseudomonas aeruginosa 9229; assay: Conventional agar dilution, MIC
Method: as §1

[9] = test system: Escherichia coli K 12; assay: Conventional agar dilution, MIC; settings: K12
Method: as §1

[10] = test system: P. aeruginosa 5; assay: Conventional agar dilution, MIC; settings: Pseudomonas aeruginosa
Method: as §1

[11] = test system: E. coli K 12 R 112 (NPT I); assay: Conventional agar dilution, MIC; settings: Escherichia coli
Method: as §1

[12] = test system: Staphylococcus aureus 209 P; assay: Conventional agar dilution, MIC
Method: as §1

[13] = test system: Proteus mirabilis 525; assay: Conventional agar dilution, MIC
Method: as §1

[14] = test system: E. coli K 12 R 55 (GNT); assay: Conventional agar dilution, MIC; settings: Escherichia coli
Method: as §1

[15] = test system: E. coli K 12 R 118 (NPT II); assay: Conventional agar dilution, MIC; settings: Escherichia coli
Method: as §1

[16] = test system: P. aeruginosa 4; assay: Conventional agar dilution, MIC; settings: Pseudomonas aeruginosa
Method: as §1

[17] = test system: P. aeruginosa 6; assay: Conventional agar dilution, MIC; settings: Pseudomonas aeruginosa
Method: as §1

[18] = test system: P. aeruginosa 53585; assay: Conventional agar dilution, MIC; settings: Pseudomonas aeruginosa
Method: as §1

[19] = test system: bacterial strains; assay: Antibacterial "in vitro" activity, conventional agar dilution (overall); settings: in words, compared with neomycin B and paromomycin (1)
Method: as §1

| Compound | MIC [1] | MIC [2] | MIC [3] | MIC [4]; 47823 | MIC [5]; 53825 | MIC [6]; 19660 | MIC [7] | MIC ([8]; Pseudomonas aeruginosa, 9229) | MIC ([9]; Escherichia coli) | MIC [10]; 5 | MIC [11] | MIC ([12]; Staphylococcus aureus, 209P) | MIC ([13]; Proteus mirabilis, 525) | MIC [14] | MIC [15] | MIC [16]; 4 | MIC [17]; 6 | MIC [18]; 53585 | further results |
| --- | --- | --- | --- | --- | --- | --- | --- | --- | --- | --- | --- | --- | --- | --- | --- | --- | --- | --- | --- |
| NC[C@@H]1O[C@H](O[C@H]2[C@@H](O)[C@H](O[C@@H]3[C@@H](O)[C@H](N)C[C@H](N)[C@H]3O[C@H]3O[C@H](CN)[C@@H](O)[C@H](O)[C@H]3N)O[C@@H]2CO)[C@H](N)[C@@H](O)[C@@H]1O [Neomycin B, neomycin B] | 25 µg/mL (≈ 40.7 µM) | 25 µg/mL (≈ 40.7 µM) | > 100 µg/mL | > 100 µg/mL | > 100 µg/mL | 50 µg/mL (≈ 81.3 µM) | > 100 µg/mL | 100 µg/mL (≈ 163 µM) | 6.25 µg/mL (≈ 10.2 µM) | 50 µg/mL (≈ 81.3 µM) | > 200 µg/mL | 1.55 µg/mL (≈ 2.52 µM) | 12.5 µg/mL (≈ 20.3 µM) | 6.25 µg/mL (≈ 10.2 µM) | 200 µg/mL (≈ 325 µM) | 25 µg/mL (≈ 40.7 µM) | 25 µg/mL (≈ 40.7 µM) | > 100 µg/mL | – |
| NC[C@@H]1O[C@H](O[C@H]2[C@@H](O)[C@H](O[C@@H]3[C@@H](O)[C@H](N)C[C@H](N)[C@H]3O[C@H]3O[C@H](CO)[C@@H](O)[C@H](O)[C@H]3N)O[C@@H]2CO)[C@H](N)[C@@H](O)[C@@H]1O [Paromomycin (1), paromomycin] | 50 µg/mL (≈ 81.2 µM) | 25 µg/mL (≈ 40.6 µM) | > 100 µg/mL | > 100 µg/mL | > 100 µg/mL | > 100 µg/mL | > 100 µg/mL | > 100 µg/mL | 12.5 µg/mL (≈ 20.3 µM) | > 100 µg/mL | > 200 µg/mL | 1.55 µg/mL (≈ 2.52 µM) | 25 µg/mL (≈ 40.6 µM) | 12.5 µg/mL (≈ 20.3 µM) | 200 µg/mL (≈ 325 µM) | > 100 µg/mL | > 100 µg/mL | > 100 µg/mL | – |
| NC[C@@H]1C[C@H](O)[C@@H](N)[C@@H](O[C@H]2[C@H](O[C@@H]3O[C@H](CO)[C@@H](O[C@H]4O[C@@H](CN)[C@@H](O)[C@H](O)[C@H]4N)[C@H]3O)[C@@H](O)[C@H](N)C[C@@H]2N)O1 [compound 8, 4'-deoxyneomycin B] | – | – | > 100 µg/mL | – | – | – | – | – | – | – | > 200 µg/mL | – | – | 3.12 µg/mL (≈ 5.21 µM) | 25 µg/mL (≈ 41.8 µM) | – | – | – | antibacterial "in vitro" activity ([19]; listed as 4'-Deoxy-neomycin B (8)): higher and broader when compared with those of neomycin B and paromomycin (1); antibacterial "in vitro" activity ([19]; listed as 4'-deoxy-neomycin B (8)): higher and broader when compared with that of neomycin B; MIC ([1]; agar dilution, read-out: MIC): 12.5 µg/mL (≈ 20.9 µM); MIC ([2]; P. mirabilis V 15, agar dilution, read-out: MIC): 12.5 µg/mL (≈ 20.9 µM); MIC ([4]; P. aeruginosa 47823, agar dilution, read-out: MIC): 12.5 µg/mL (≈ 20.9 µM); MIC ([5]; P. aeruginosa 53825, agar dilution, read-out: MIC): 50 µg/mL (≈ 83.5 µM); MIC ([6]; P. aeruginosa 19660, agar dilution, read-out: MIC): 25 µg/mL (≈ 41.8 µM); MIC ([7]; P. aeruginosa B, agar dilution, read-out: MIC): 25 µg/mL (≈ 41.8 µM); MIC ([8]; Pseudomonas aeruginosa 9229, agar dilution, read-out: MIC): 25 µg/mL (≈ 41.8 µM); MIC ([9]; Escherichia coli K 12, agar dilution, read-out: MIC): 3.12 µg/mL (≈ 5.21 µM); MIC ([10]; P. aeruginosa 5, agar dilution, read-out: MIC): 25 µg/mL (≈ 41.8 µM); MIC ([12]; Staphylococcus aureus 209 P, agar dilution, read-out: MIC): 0.77 µg/mL (≈ 1.29 µM); MIC ([13]; Proteus mirabilis 525, agar dilution, read-out: MIC): 6.2 µg/mL (≈ 10.4 µM); MIC ([16]; P. aeruginosa 4, agar dilution, read-out: MIC): 12.5 µg/mL (≈ 20.9 µM); MIC ([17]; P. aeruginosa 6, agar dilution, read-out: MIC): 12.5 µg/mL (≈ 20.9 µM); MIC ([18]; P. aeruginosa 53585, agar dilution, read-out: MIC): 25 µg/mL (≈ 41.8 µM) |

Source: patent US4247687A, “Aminoglycoside antibiotic derivatives and process for their preparation” (Farmitalia Carlo Erba S.p.A., priority 1979, dated 1981)
